Measured values taken from PubChem BioAssay (NCI).
Several values for one entry are separate records, joined by “and”; a condition that tells them apart may be missing. Identical values can stand only once.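 Interpolation was linear, between the two tested concentrations surrounding the appropriate level; five concentrations were tested over 48 hours in 96-well plates. The concentration for 50% growth inhibition is given as GI50. The concentration for full growth arrest is given as TGI.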

How the values were obtained:
Assay in all cases: inhibition of tumour cell growth, NCI panel, 48 h
[1] = test system: BT-549 breast
[2] = test system: ACHN renal
[3] = test system: SK-OV-3 ovarian
[4] = test system: CCRF-CEM leukemia
[5] = test system: NCI/ADR-RES ovarian
[6] = test system: MCF7 breast
[7] = test system: OVCAR-4 ovarian
[8] = test system: KM12 colon
[9] = test system: M14 melanoma
[10] = test system: HCT-116 colon

SMILES | GI50 [1] | TGI [1] | GI50 [2] | TGI [2] [µM] | GI50 [3] | TGI [3] | GI50 [4] | TGI [4] [µM] | GI50 [5] | TGI [5] | GI50 [6] | TGI [6] | GI50 [7] | TGI [7] | GI50 [8] | TGI [8] | GI50 [9] | TGI [9] | GI50 [10] | TGI [10]
CCN(CC)CCCC(C)Nc1c(-c2ccccc2)cnc2cc(Cl)ccc12 (stereo not drawn) | 8760 nM | 22.3 µM | 13000 nM | 36.6 | 15.3 µM | 33.5 µM | 14400 nM | > 100 | 11600 nM | 28.3 µM | 4540 nM | 17.7 µM | 10300 nM | 36.4 µM | 4190 nM | 16 µM | 1860 nM | 3.44 µM | 3720 nM | 15.2 µM
Nc1n[nH]c2ccc([C@@H]3Nc4cc5[nH]ncc5cc4[C@H]4C5CCC(C5)[C@@H]34)cc12 (stereo partly drawn) | 725 nM | > 46 µM | 723 nM | 53.5 | 16 µM | > 100 µM | 344 nM | > 40.4 | 807 nM | > 100 µM | 384 nM | > 80.8 µM | 9300 nM | > 100 µM | 393 nM | 19.1 µM | 294 nM | > 100 µM | 416 nM | > 100 µM
O=C1/C(=C/c2cccc(Br)c2)COc2ccc(O)c(O)c21 | 2030 nM | 4.35 µM | 1240 nM | 2.5 | 3.12 µM | 10.6 µM | 312 nM | 1.69 | 2030 nM | 10.3 µM | 649 nM | 2.56 µM | 1510 nM | 2.85 µM | 1480 nM | 3.64 µM | 1600 nM | 3.47 µM | 1080 nM | 2.47 µM
COc1cc(/C=C/[N+](=O)[O-])cc(OC)c1OC | 2190 nM | 4.57 µM | 1830 nM | 3.46 | 4.79 µM | 16.1 µM | 3350 nM | 15.4 | 3430 nM | 36.7 µM | 3080 nM | 14.6 µM | 3220 nM | 11.5 µM | 3680 nM | 12.3 µM | 2070 nM | 4.31 µM | 1890 nM | 3.56 µM
C[C@@H]1COCCN1c1cc(-c2ccnn2C)c2ccnc(-c3ccn[nH]3)c2n1 | 48.1 nM and 69.1 nM | 0.876 µM and 1.76 µM | 41.7 nM | 0.596 | 0.0928 µM and 0.215 µM | 0.732 µM and 2.06 µM | 17.5 nM and 30 nM | > 23.7 | 101 nM and 280 nM | 2.43 µM and 4.78 µM | 15.8 nM and 42.5 nM | 23.8 µM and > 100 µM | 109 nM and 181 nM | 1.74 µM | 176 nM and 171 nM | > 100 µM | 29.1 nM and 47.1 nM | – | 159 nM and 228 nM | 16.3 µM and > 59 µM
C[C@H]1c2ccccc2CN1CCCOc1cc2c(cc1OCC1CC1)C1(CCCC1)C(N)=N2 | 4800 nM | 10.8 µM | 1800 nM | 6.69 | 4.84 µM | 10.7 µM | 1460 nM | 6.82 | 2840 nM | 10.5 µM | 1180 nM | 3.46 µM | 1830 nM | 7.42 µM | 2030 nM | 7.69 µM | 932 nM | 1.81 µM | 950 nM | 2.26 µM
O=C1CCC(N2C(=O)c3cccc(NCCCC4CCN(CCNC(=O)c5cc6c(o5)C(=O)c5ccccc5C6=O)CC4)c3C2=O)C(=O)N1 (stereo not drawn) | 636 nM | 2.15 µM | 1290 nM | 2.56 | 2.88 µM | 8.52 µM | 2270 nM | > 71.6 | 2890 nM | 14.7 µM | 10.2 nM | 0.215 µM | 747 nM | 2.08 µM | 1290 nM | 3.97 µM | 161 nM | 0.309 µM | 465 nM | 2.38 µM
CN(c1ccc(C#N)c(Cl)c1)C1CCC(NC(=O)c2ccc(N3CCN(C4CN(c5ccc6c(c5)C(=O)N(C5CCC(=O)NC5=O)C6=O)C4)CC3)cc2)CC1 (stereo not drawn) | 98600 nM | > 100 µM | > 100000 nM | > 100 | > 100 µM | > 100 µM | > 100000 nM | > 100 | > 100000 nM | > 100 µM | > 100000 nM | > 100 µM | > 100000 nM | > 100 µM | > 100000 nM | > 100 µM | 21700 nM | 64.3 µM | > 100000 nM | > 100 µM
NS(=O)(=O)c1cccc(-c2ccc3c(NC(=O)C4CC4)n[nH]c3c2)c1 | > 21000 nM | > 25 µM | > 25000 nM | > 25 | 9.16 µM | 23.6 µM | 8510 nM | > 25 | > 25000 nM | > 25 µM | > 13300 nM | > 24.1 µM | 16700 nM | > 25 µM | 11300 nM | > 25 µM | 12300 nM | > 25 µM | > 16900 nM | > 25 µM
C=CCn1c(=O)c2cnc(Nc3ccc(N4CCN(C)CC4)cc3)nc2n1-c1cccc(C(C)(C)O)n1 | 437 nM and 383 nM | 6.01 µM and > 6.27 µM | 75 nM and 226 nM | > 100 | 0.251 µM and 0.237 µM | 8.08 µM and > 3.11 µM | 271 nM and 294 nM | – | 2190 nM and 2730 nM | 18.6 µM and > 10 µM | 323 nM | 21.4 µM and > 10 µM | 373 nM and 507 nM | 28.7 µM and > 10 µM | 293 nM and 364 nM | 1.53 µM and 3.07 µM | 191 nM and 213 nM | 11.2 µM and > 5.86 µM | 321 nM and 328 nM | 11.4 µM and > 10 µM
CCN(CC)C(=O)COc1cc2c(O)c3c(O)c(C)c4c(c13)C(=O)C(C)(OC=CC(OC)C(C)C(OC(C)=O)C(C)C(O)C(C)C(O)C(C)C=CC=C(C)C(=O)N2)O4 (stereo not drawn) | – | > 100 µM | – | > 100 | – | > 100 µM | – | > 100 | – | > 100 µM | – | > 100 µM | – | > 100 µM | – | > 100 µM | – | > 100 µM | – | > 100 µM
O=C1CSC(c2ccccc2O)N1c1nnc(Cn2ccnc2)o1 (stereo not drawn) | 6260 nM | 29.2 µM | 4960 nM | > 100 | 27.6 µM | > 100 µM | 4370 nM | 52.9 | 3180 nM | 29.6 µM | 5430 nM | 23.5 µM | 4510 nM | 37.2 µM | 5160 nM | > 100 µM | 7970 nM | 43.9 µM | 9860 nM | 43.7 µM
